Experimental data: US12568968B2, “Herbicide combinations comprising glufosinate and epyrifencacil” (BASF SE, priority 2020, dated 2026)

Legend:
Test in all cases: Greenhouse post-emergence weed control, percent injury vs untreated control
Assay type in all cases: in vivo
Hordeum vulgare (HORVS) = conditions: 480 h, 20 DAT
[1] = system: Amaranthus Palmeri (AMAPA); conditions: 480 h, 20 DAT
[2] = system: Abutilon theophrasti (ABUTH); conditions: 480 h, 20 DAT
Avena fatua (AVEFA) = conditions: 480 h, 20 DAT, 1% MSO
[3] = system: Amaranthus tuberculatus (AMATU); conditions: 480 h, 20 DAT
[4] = 200 g ai/ha, read-out: Solo Glufosinate % activity
[5] = 50 g ai/ha, read-out: Solo Glufosinate % activity
[6] = 0.9 g ai/ha, read-out: Solo epyrifenacil % activity

Question: `CP(=O)(O)CCC(N)C(=O)O` (racemic) [Glufosinate, (2RS)-2-amino-4-[hydroxy(methyl)phosphinoyl]butyric acid] was tested. Which inhibition at 200 g/ha (Hordeum vulgare (HORVS); [4]) did it give?
Answer: Its inhibition at 200 g/ha is 25%.

Question: And the inhibition at 200 g/ha ([1]; 200 g ai/ha, Table 5, read-out: Solo Glufosinate % activity)?
Answer: The inhibition at 200 g/ha was 75%.

Question: What about the inhibition at 200 g/ha [2, 4] of the same molecule?
Answer: The inhibition at 200 g/ha was 10%.

Question: What about the inhibition at 50 g/ha (Avena fatua (AVEFA); [5]) of the same molecule?
Answer: Its inhibition at 50 g/ha is 10%.

Question: What about the inhibition at 50 g/ha [3, 5] of the same molecule?
Answer: The inhibition at 50 g/ha was 10%.

Question: And the inhibition at 100 g/ha ([3]; 100 g ai/ha, read-out: Solo Glufosinate % activity)?
Answer: Its inhibition at 100 g/ha is 10%.

Question: What about the inhibition at 200 g/ha [3, 4] of the same molecule?
Answer: Its inhibition at 200 g/ha is 70%.

Question: Which inhibition at 0.9 g/ha (Hordeum vulgare (HORVS); [6]) does the source give for `CCOC(=O)COc1ncccc1Oc1cc(-n2c(=O)cc(C(F)(F)F)n(C)c2=O)c(F)cc1Cl` [epyrifenacil, Acetic acid, 2-[[3-[2-chloro-5-[3,6-dihydro-3-methyl-2,6-dioxo-4-(trifluoromethyl)-1(2H)-pyrimidinyl]-4-fluorophenoxy]-2-pyridinyl]oxy]-, ethyl ester] here?
Answer: Its inhibition at 0.9 g/ha is 10%.

Question: What about the inhibition at 0.3 g/ha ([1]; 0.3 g ai/ha, read-out: Solo epyrifenacil % activity) of the same molecule?
Answer: Its inhibition at 0.3 g/ha is 15%.

Question: What about the inhibition at 0.9 g/ha [1, 6] of the same molecule?
Answer: The inhibition at 0.9 g/ha was 20%.

Question: What about the inhibition at 0.1 g/ha ([2]; 0.1 g ai/ha, read-out: Solo epyrifenacil % activity) of the same molecule?
Answer: Its inhibition at 0.1 g/ha is 25%.

Question: And the inhibition at 0.9 g/ha (Avena fatua (AVEFA); [6])?
Answer: Its inhibition at 0.9 g/ha is 15%.

Question: And the inhibition at 0.9 g/ha ([3]; 0.9 g ai/ha, Table 2, read-out: Solo epyrifenacil % activity)?
Answer: The inhibition at 0.9 g/ha was 75%.
